{
  "source": "patent US20240415845A1",
  "about": "“Compositions of Iboga Alkaloids and Methods of Treatment” (priority 2022, published 2024)",
  "key": {"[1]": {"test_system": "special operations veterans with combat and/or blast exposure", "assay": "Structural MRI (T1w, FreeSurfer): brain volume and cortical thickness", "format": "in vivo, human", "description": "Structural imaging of the brain was also conducted on some of the subjects of Example 1. Gray matter constitutes about 40% of the brain and white matter constitutes about 60% of the brain. Gray matter contains most of the brain's neuronal cell nodes, it is fully developed once a person reaches their 20's and interprets sensor information from various parts of the body. White matter is made up of bundles which connect various gray matter areas, it develops throughout the 20's and peaks in middle age. Typical metrics analyzed in anatomical (T1-weighted, “T1w”) imaging include volume and/or shape of nuclei (e.g. caudate), volume and/or shape of ventricles of the brain, and cortical thickness (mm). These metrics can be used to study normal and abnormal neuroanatomy and are primarily used to quantify gray matter. A tool called FreeSurfer was applied to images for a T1w structural analysis (volume, cortical thickness) to adjust for bias, remove non-brain matter, segments by tissue, parcels the brain into standardized regions, and provides measurements of those regions. FreeSurfer measurements of whole brain volume, volume by tissue (gray, white, CSF), estimated intracranial volume (ICV), subcortical gray matter volume, cortical volume by region were done. […] In particular, analysis was done to determine if there was any loss in gray matter volume or cortical thickness, whether there was a loss in white matter volume or an increase in presence of white matter […]. Results are summarized in Table 3 and shown in FIGS. 17A-17B, and FIGS. 18A-18B.\nThe fMRI images were also inspected to determine the difference in volume in regional areas of the brain from baseline to one month after treatment. FIG. 18A is a bar graph showing the effect size of a change in volume in 47 brain regions indicated along the x-axis. […] The fMRI images were also inspected for whole brain thickness at baseline and one month after treatment. […] FIG. 18B is a bar graph showing the effect size of a cortical thickness change for the brain regions indicated along the x-axis, from baseline to one month after treatment. […] The right and left parahippocampal gyrus are involved in visuospatial processing, including scene perception, navigation, and emotional contextualization. The left orbitofrontal gyrus is involved in impulse control and reward valuation. The left insular cortex is associated with both the affective-perceptual and cognitive-evaluative forms of empathy, as well as awareness of hunger, pain and fatigue. The left entorhinal cortex is a widespread network hub for memory, navigation, and perception of time."}, "[2]": {"test_system": "special operations veterans with combat and/or blast exposure", "assay": "Functional MRI: resting-state functional connectivity and lag projection analysis", "format": "in vivo, human", "description": "Functional magnetic resonance imaging (fMRI) was performed on the subjects enrolled in the study described in Example 1. Neuroimaging is a branch of medical imaging that focuses on the brain. It utilizes techniques of physics, optics, and mathematics to quantify brain structure and function. […] During resting, subjects are asked to do nothing and the aim is to observe the brain at rest. When the subject is asked to perform a task, the aim is to observe how the brain works in response to the task. Other magnetic resonance based imaging techniques include: anatomical, which measures cortical thickness, area, gyrification, and volume: arterial spin labelling, which quantitatively measures tissue perfusion, cerebral blood flow, where perfusion refers to the delivery of oxygen and nutrients to tissue by means of blood flow: and, diffusion tensor imaging, which measures diffusion of water through white natter, such as neural fiber tracts. fMRI can provide a series of images that form a film, as opposed to a single image obtained in MRI.\nThe human brain is a series of well-organized and optimized series of efficient networks. […] The functional connectivity networks evaluated in a region of interest in the brain included those identified in Table 2-1 of Example 2.\nfMRI data was also analyzed to inspect activity patterns as a function of time. […]"}, "[3]": {"test_system": "special operations veterans with combat and/or blast exposure", "conditions": "in vivo"}, "[4]": {"test_system": "special operations veterans with combat and/or blast exposure", "assay": "Safety monitoring during and after treatment (adverse events, QTc by ECG)", "format": "in vivo, human", "description": "With subjects in the fasting state, an intravenous infusion of 1 gram of magnesium sulfate was administered 1-2 hours prior to treatment. […] Medical staff (MD, RN, or EMT) were onsite at a ratio of at least 1 staff per 2 patients throughout treatment for monitoring and management, but no specific coaching or psychological support was provided during treatment."}, "[5]": {"conditions": "orally administered to humans; possibly longer in poor CYP2D6 metabolizers; cited from earlier work"}, "[6]": {"conditions": "baseline to one month after treatment"}},
  "note": "Values joined by “and” are separate entries in the source; they are usually repeats but may differ in a detail not shown here. Identical values can stand only once. “Also recorded” adds a separate entry of the source.",
  "data": [
    {"smiles": "CCC1CC2CC3c4[nH]c5ccc(OC)cc5c4CCN(C2)C13", "note": "(stereo not shown) [ibogaine, Ibogaine]", "values": [
      {"measurement": "regional volume change in cerebral white matter (left) and left ventral DC", "setting": "[1]; [6]", "result": "Increases in volume"},
      {"measurement": "regional volume change in posterior corpus callosum and left choroid plexus", "setting": "[1]; [6]", "result": "Decreases in volume"},
      {"measurement": "White matter hypointensities (corrected for cerebral white matter), change", "setting": "[1]; baseline vs one month post treatment, 17 subjects, two-tailed p = 0.0789", "result": "Two-tailed: no significant differences"},
      {"measurement": "Subcortical Gray Matter volume, change", "setting": "[1]; baseline vs one month post treatment, 17 subjects, two-tailed p = 0.0949", "result": "Two-tailed: no significant differences"},
      {"measurement": "Total Gray Matter volume, change", "setting": "[1]; baseline vs one month post treatment, 17 subjects, two-tailed p = 0.4755", "result": "Two-tailed: no significant differences"},
      {"measurement": "Cortical Gray Matter volume, change", "setting": "[1]; baseline vs one month post treatment, 17 subjects, two-tailed p = 0.4847", "result": "Two-tailed: no significant differences"},
      {"measurement": "damage to the brain by inspection of brain volume and thickness", "setting": "[1]; one month after treatment", "result": "no apparent damage to the brain"},
      {"measurement": "right hemisphere mean cortical thickness, change", "setting": "[1]; one month after treatment vs baseline", "result": "no significant difference"},
      {"measurement": "Left hemisphere mean cortical thickness, change", "setting": "[1]; one month after treatment vs baseline, two-tailed p=0.7146", "result": "no significant difference"},
      {"measurement": "cortical thickness change in left entorhinal cortex, left-lateral-orbitofrontal pole, parahippocampal gyrus (bilaterally), left insular cortex, right-pars triangularis", "setting": "[1]; one-month after treatment", "result": "Increases in cortical thickness"},
      {"measurement": "lag projection of BOLD fMRI in left orbitofrontal gyrus and inferior frontal gyrus", "setting": "[2]; baseline vs about four days post treatment, paired T-test, fwec p<0.001", "result": "relative slowing"},
      {"measurement": "functional connection pairs in the brain networks reorganized (resting state functional connectivity)", "setting": "[2]; within a few days after treatment, persisted to one-month post treatment", "result": 22},
      {"measurement": "Cognitive Flexibility Composite (average of D-KEFS TMT Condition 4, Color/Word Interference Condition 4, Verbal Fluency Category Switching) score", "setting": "[3]", "result": "56.6 ± 5.7 T score and 59.3 ± 5.0 T score"},
      {"measurement": "Cognitive Flexibility Composite, effect size D", "setting": "[3]", "result": "0.74 and 0.43"},
      {"measurement": "Cognitive Inhibition (D-KEFS Color/Word Interference, Condition 3) score", "setting": "[3]", "result": "59.9 ± 6.4 T score and 59.9 ± 7.5 T score"},
      {"measurement": "Cognitive Inhibition (D-KEFS Color/Word Interference, Condition 3), effect size D", "setting": "[3]", "result": "1.22 and 0.62"},
      {"measurement": "Detection (CPT-3 Detection) score", "setting": "[3]", "result": "41.2 ± 8.2 T score and 39.5 ± 7.5 T score"},
      {"measurement": "Detection (CPT-3 Detection), effect size D", "setting": "[3]", "result": "0.86 and 1.05"},
      {"measurement": "Phonemic Fluency (D-KEFS Verbal Fluency) score", "setting": "[3]", "result": "60.8 ± 10.3 T score and 64.0 ± 10.1 T score"},
      {"measurement": "Problem Solving (D-KEFS TT, Total Achievement Score) score", "setting": "[3]", "result": "59.1 ± 7.1 T score and 59.5 ± 7.9 T score"},
      {"measurement": "Problem Solving (D-KEFS TT, Total Achievement Score), effect size D", "setting": "[3]", "result": "0.44 and 0.49"},
      {"measurement": "Reaction Time (CPT-3 Reaction Time) score", "setting": "[3]", "result": "44.1 ± 6.8 T score and 46.4 ± 8.1 T score"},
      {"measurement": "Reaction Time (CPT-3 Reaction Time), effect size D", "setting": "[3]", "result": "0.52 and 0.29"},
      {"measurement": "Semantic Fluency (D-KEFS Verbal Fluency) score", "setting": "[3]", "result": "60.2 ± 12.2 T score and 63.6 ± 7.8 T score"},
      {"measurement": "Sustained Attention (CPT-3 Hit Reaction Time Block Change) score", "setting": "[3]", "result": "50.8 ± 7.9 T score and 51.2 ± 7.7 T score"},
      {"measurement": "Verbal Memory (HVLT-R) score", "setting": "[3]", "result": "49.0 ± 9.2 T score and 53.1 ± 8.8 T score"},
      {"measurement": "Visuospatial Memory (BVMT-R) score", "setting": "[3]", "result": "58.8 ± 7.1 T score and 58.3 ± 6.6 T score"},
      {"measurement": "Visuospatial Memory (BVMT-R), effect size D", "setting": "[3]", "result": "0.32 and 0.50"},
      {"measurement": "adverse effect on processing speed, individual D-KEFS results", "setting": "[3]", "result": "no indication of an adverse effect"},
      {"measurement": "declines across any neuropsychological performance domain", "setting": "[3]", "result": "No declines"},
      {"measurement": "executive functioning (inhibition, cognitive flexibility, problem-solving, phonemic fluency, working memory), effect sizes D", "setting": "[3]", "result": "0.31-1.22"},
      {"measurement": "performance changes in language (semantic fluency)", "setting": "[3]", "result": "No significant performance changes"},
      {"measurement": "processing speed, effect sizes D", "setting": "[3]", "result": "0.97-1.34"},
      {"measurement": "slowing of reaction time, effect sizes D", "setting": "[3]", "result": "0.29-0.52"},
      {"measurement": "sustained attention accuracy (detection), effect sizes D", "setting": "[3]", "result": "0.86-1.05"},
      {"measurement": "Processing Speed (PSI, WAIS-IV) score", "setting": "[3]; iv", "result": "59.2 ± 9.7 T score and 61.6 ± 10.7 T score"},
      {"measurement": "Processing Speed (PSI, WAIS-IV), effect size D", "setting": "[3]; iv", "result": "0.97 and 1.34"},
      {"measurement": "Working Memory (WMI, WAIS-IV) score", "setting": "[3]; iv", "result": "57.0 ± 9.5 T score and 57.6 ± 9.2 T score"},
      {"measurement": "Working Memory (WMI, WAIS-IV), effect size D", "setting": "[3]; iv", "result": "0.37 and 0.31"},
      {"measurement": "participants with transient cerebellar signs such as mild ataxia and intention tremor", "setting": "[4]; 30 participants", "result": "All participants"},
      {"measurement": "unexpected or serious treatment-emergent side effects / adverse events", "setting": "[4]; 30 participants, oral ibogaine with IV magnesium sulfate", "result": "no unexpected or serious treatment-emergent side effects; also recorded: no unexpected or serious adverse events"},
      {"measurement": "prolongation of QTc", "setting": "[4]; continuous 5-lead ECG for 12-16 hours following administration", "result": "no instances of a concerning prolongation of QTc"},
      {"measurement": "time to resolution of transient cerebellar signs", "setting": "[4]; human, in vivo, oral", "result": "≤ 24", "unit": "h"},
      {"measurement": "participants treated for insomnia", "setting": "[4]; while experiencing the oneirogenic effects, 1 participant", "result": 3, "unit": "%"},
      {"measurement": "participants treated for hypertension", "setting": "[4]; while experiencing the oneirogenic effects, 2 participants", "result": 7, "unit": "%"},
      {"measurement": "participants treated for anxiety", "setting": "[4]; while experiencing the oneirogenic effects, 3 participants", "result": 10, "unit": "%"},
      {"measurement": "participants treated for nausea", "setting": "[4]; while experiencing the oneirogenic effects, 7 participants", "result": 23, "unit": "%"},
      {"measurement": "participants treated for headache", "setting": "[4]; while experiencing the oneirogenic effects, 12 participants", "result": 40, "unit": "%"},
      {"measurement": "half-life", "setting": "[5]", "result": "about 7.5 hours"}
    ]}
  ]
}
